We go through 21 compounds from patent publication US9493487B2, “3-(1H-imidazo[4,5-C]pyridin-2-YL)-1H-pyrazolo[3,4-B]pyridine and therapeutic uses thereof” (Samumed, LLC, priority 2014, dated 2016).

The subject of the test is Wnt activity (Sp5-Luc reporter, SW480 colon carcinoma cells). Nature of the test: Sp5-Luc Wnt reporter gene assay in SW480 colon carcinoma cells. The class given is cell-based. The conditions noted are these: Homo sapiens; SW480 cells stably expressing Sp5-Luc reporter; 42 h incubation; BrightGlo luminescence normalized to DMSO. The source says:
The screening assay for Wnt activity is described as follows. Reporter cell lines can be generated by stably transducing cancer cell lines (e.g., colon cancer) or primary cells (e.g., IEC-6 intestinal cells) with a lentiviral construct that includes a Wnt-responsive promoter driving expression of the firefly luciferase gene.
SW480 colon carcinoma cells were transduced with a lentiviral vector expressing luciferase with a human Sp5 promoter consisting of a sequence of eight TCF/LEF binding sites. SW480 cells stably expressing the Sp5-Luc reporter gene and a hygromycin resistance gene were selected by treatment with 150 μg/ml of hygromycin for 7 days. These stably transduced SW480 cells were expanded in cell culture and used for all further screening activities. For Sp5-Luc reporter gene assays, the cells were plated at 10,000 cells/well in 96-well plates with growth medium containing 10% fetal calf serum and incubated overnight at 37° C. and 5% CO2. Each compound was dissolved in DMSO as a 10 mM stock in standard j-vials and used to prepare compound source plates in dose-response format with 3-fold serial dilutions and a 10 mM top concentration. Compound transfer from serially diluted source plates to assay plates containing the cells was accomplished using a pintool (Multimek 96, Beckman equipped with V&P Scientific FP1S50H pins) based liquid handling protocol. This protocol used a slotted pin to transfer 50 nl of compound from a source plate well to an assay plate well containing 50 μl of cells in growth medium. […] Control wells received 50 nl of DMSO treatment for normalization and calculating IC50 values. The treated cells were incubated at 37° C. and 5% CO2 for an additional forty-two hours. Following incubation, the growth medium was removed and 50 μl of BrightGlo luminescence reagent (Promega) was added to each well of the 96-well assay plates. The plates were placed on an orbital shaker for 5 min and then luminescence was quantified on the Victor3 (Perkin Elmer) plate reader. Readings were normalized to DMSO only treated cells, and normalized activities were utilized for IC50 calculations using the dose-response log (inhibitor) vs. response-variable slope (four parameters) nonlinear regression feature available in GraphPad Prism 5.0 or 6.0.
(A reporter such as luciferase makes a cellular process visible.)

As to `Fc1cccc(-c2nccc3[nH]c(-c4n[nH]c5ncc(-c6cncc(CN7CCC(F)(F)C7)c6)cc45)nc23)c1` [Compound 25, 5-(5-((3,3-Difluoropyrrolidin-1-yl)methyl)pyridin-3-yl)-3-(4-(3-fluorophenyl)-1H-imidazo[4,5-c]pyridin-2-yl)-1H-pyrazolo[3,4-b]pyridine], inhibition was half-maximal at 33.9 nM (IC50).

`Fc1ccc(-c2nccc3[nH]c(-c4n[nH]c5ncc(-c6cncnc6)cc45)nc23)cc1` [Compound 52, 3-(4-(4-Fluorophenyl)-1H-imidazo[4,5-c]pyridin-2-yl)-5-(pyrimidin-5-yl)-1H-pyrazolo[3,4-b]pyridine] had an IC50 of 155 nM.

`c1cncc(-c2cnc3[nH]nc(-c4nc5c(-c6cccnc6)nccc5[nH]4)c3c2)c1` [Compound 82, 5-(Pyridin-3-yl)-3-(4-(pyridin-3-yl)-1H-imidazo[4,5-c]pyridin-2-yl)-1H-pyrazolo[3,4-b]pyridine] gave an IC50 of 41.9 nM.

Consider `c1cncc(-c2nccc3[nH]c(-c4n[nH]c5ncc(-c6cncc(CN7CCCCC7)c6)cc45)nc23)c1` [Compound 93, 5-(5-(Piperidin-1-ylmethyl)pyridin-3-yl)-3-(4-(pyridin-3-yl)-1H-imidazo[4,5-c]pyridin-2-yl)-1H-pyrazolo[3,4-b]pyridine], for which inhibition was half-maximal at 3880 nM (IC50).

Compound `O=C(Nc1cncc(-c2cnc3[nH]nc(-c4nc5c(-c6ccncc6)nccc5[nH]4)c3c2)c1)C1CCCCC1` [Compound 126, N-(5-(3-(4-(Pyridin-4-yl)-1H-imidazo[4,5-c]pyridin-2-yl)-1H-pyrazolo[3,4-b]pyridin-5-yl)pyridin-3-yl)cyclohexanecarboxamide] came in with an IC50 of 1120 nM.

Compound `Cc1cn(-c2nccc3[nH]c(-c4n[nH]c5ncc(-c6cncc(NC(=O)C(C)(C)C)c6)cc45)nc23)cn1` [Compound 190, N-(5-(3-(4-(4-Methyl-1H-imidazol-1-yl)-1H-imidazo[4,5-c]pyridin-2-yl)-1H-pyrazolo[3,4-b]pyridin-5-yl)pyridin-3-yl)pivalamide] registered an IC50 of 1580 nM.

With `CC(C)C(=O)Nc1cncc(-c2cnc3[nH]nc(-c4nc5c(N6CCN(C)CC6)nccc5[nH]4)c3c2)c1` [Compound 217, N-(5-(3-(4-(4-Methylpiperazin-1-yl)-1H-imidazo[4,5-c]pyridin-2-yl)-1H-pyrazolo[3,4-b]pyridin-5-yl)pyridin-3-yl)isobutyramide], the IC50 amounted to 673 nM.

Regarding `CN1CCN(c2nccc3[nH]c(-c4n[nH]c5ncc(-c6cncc(NC(=O)C7CCCC7)c6)cc45)nc23)CC1` [Compound 229, N-(5-(3-(4-(4-Methylpiperazin-1-yl)-1H-imidazo[4,5-c]pyridin-2-yl)-1H-pyrazolo[3,4-b]pyridin-5-yl)pyridin-3-yl)cyclopentanecarboxamide], inhibition was half-maximal at 1550 nM (IC50).

The compound `CN1CCN(c2nccc3[nH]c(-c4n[nH]c5ncc(-c6cncnc6)cc45)nc23)CC1` [Compound 234, 3-(4-(4-Methylpiperazin-1-yl)-1H-imidazo[4,5-c]pyridin-2-yl)-5-(pyrimidin-5-yl)-1H-pyrazolo[3,4-b]pyridine] displayed an IC50 of 179 nM.

`CCNCc1cncc(-c2cnc3[nH]nc(-c4nc5c(-c6ccoc6)nccc5[nH]4)c3c2)c1` [Compound 266, N-((5-(3-(4-(Furan-3-yl)-1H-imidazo[4,5-c]pyridin-2-yl)-1H-pyrazolo[3,4-b]pyridin-5-yl)pyridin-3-yl)methyl)ethanamine] showed an IC50 of 339 nM.

In the case of `CCCCC(=O)Nc1cncc(-c2cnc3[nH]nc(-c4nc5c(-c6ccoc6)nccc5[nH]4)c3c2)c1` [Compound 278, N-(5-(3-(4-(Furan-3-yl)-1H-imidazo[4,5-c]pyridin-2-yl)-1H-pyrazolo[3,4-b]pyridin-5-yl)pyridin-3-yl)pentanamide], half-maximal inhibition (IC50) required 56 nM.

Take `CCCC(=O)Nc1cncc(-c2cnc3[nH]nc(-c4nc5c(-c6cc(F)cc(CNS(C)(=O)=O)c6)nccc5[nH]4)c3c2)c1` [Compound 407, N-(5-(3-(4-(3-Fluoro-5-(methylsulfonamidomethyl)phenyl)-1H-imidazo[4,5-c]pyridin-2-yl)-1H-pyrazolo[3,4-b]pyridin-5-yl)pyridin-3-yl)butyramide]: half-maximal inhibition (IC50) required 74.1 nM.

As for `CS(=O)(=O)NCc1cc(F)cc(-c2nccc3[nH]c(-c4n[nH]c5ncc(-c6cncc(CNCc7ccccc7)c6)cc45)nc23)c1` [Compound 413, N-(3-(2-(5-(5-((Benzylamino)methyl)pyridin-3-yl)-1H-pyrazolo[3,4-b]pyridin-3-yl)-1H-imidazo[4,5-c]pyridin-4-yl)-5-fluorobenzyl)methanesulfonamide], the IC50 came out at 143 nM.

The compound `Fc1cccc(-c2nccc3[nH]c(-c4n[nH]c5ncc(C6=CCNCC6)cc45)nc23)c1` [Compound 886, 3-(4-(3-Fluorophenyl)-1H-imidazo[4,5-c]pyridin-2-yl)-5-(1,2,3,6-tetrahydropyridin-4-yl)-1H-pyrazolo[3,4-b]pyridine] came in with an IC50 of 3700 nM.

Compound `Fc1cccc(-c2nccc3[nH]c(-c4n[nH]c5ncc(-c6cncc(OC7CCCCC7)c6)cc45)nc23)c1` [Compound 891, 5-(5-(Cyclohexyloxy)pyridin-3-yl)-3-(4-(3-fluorophenyl)-1H-imidazo[4,5-c]pyridin-2-yl)-1H-pyrazolo[3,4-b]pyridine] displayed an IC50 of 935 nM.

For the compound `Fc1cccc(-c2nccc3[nH]c(-c4n[nH]c5ncc(-c6cncc(OCCN7CCCC7)c6)cc45)nc23)c1` [Compound 894, 3-(4-(3-Fluorophenyl)-1H-imidazo[4,5-c]pyridin-2-yl)-5-(5-(2-(pyrrolidin-1-yl)ethoxy)pyridin-3-yl)-1H-pyrazolo[3,4-b]pyridine], 1500 nM corresponded to half-maximal inhibition (IC50).

Regarding `Oc1cncc(-c2cnc3[nH]nc(-c4nc5c(-c6cccc(F)c6)nccc5[nH]4)c3c2)c1` [Compound 897, 5-(3-(4-(3-Fluorophenyl)-1H-imidazo[4,5-c]pyridin-2-yl)-1H-pyrazolo[3,4-b]pyridin-5-yl)pyridin-3-ol], the midpoint of inhibition, the IC50, lay at 23 nM.

As to `Fc1cccc(-c2nccc3[nH]c(-c4n[nH]c5ncc(-c6cncc(OCc7ccccc7)c6)cc45)nc23)c1` [Compound 898, 5-(5-(Benzyloxy)pyridin-3-yl)-3-(4-(3-fluorophenyl)-1H-imidazo[4,5-c]pyridin-2-yl)-1H-pyrazolo[3,4-b]pyridine], the IC50 came out at 3260 nM.

In turn, `O=C(CC1CCCCC1)Nc1cncc(-c2cnc3[nH]nc(-c4nc5c(-c6cccc(F)c6)nccc5[nH]4)c3c2)c1` [Compound 899, 2-Cyclohexyl-N-(5-(3-(4-(3-fluorophenyl)-1H-imidazo[4,5-c]pyridin-2-yl)-1H-pyrazolo[3,4-b]pyridin-5-yl)pyridin-3-yl)acetamide] returned an IC50 of 1970 nM.

Turning to `Fc1cccc(-c2nccc3[nH]c(-c4n[nH]c5ncc(-c6ccccn6)cc45)nc23)c1` [Compound 901, 3-(4-(3-Fluorophenyl)-1H-imidazo[4,5-c]pyridin-2-yl)-5-(pyridin-2-yl)-1H-pyrazolo[3,4-b]pyridine], the IC50 was above 10000 nM.

In the case of `CC(C)CC(=O)Nc1cncc(-c2cnc3[nH]nc(-c4nc5c(-c6cc(F)cc(OCCN(C)C)c6)nccc5[nH]4)c3c2)c1` [Compound 1192, N-(5-(3-(4-(3-(2-(Dimethylamino)ethoxy)-5-fluorophenyl)-1H-imidazo[4,5-c]pyridin-2-yl)-1H-pyrazolo[3,4-b]pyridin-5-yl)pyridin-3-yl)-3-methylbutanamide], half-maximal inhibition (IC50) was put at 400 nM.

As usually defined, the IC50 is the concentration needed to halve the response being measured. Low values mean higher potency, high ones lower potency.
